The source of these data is US10444230B2, “Method and system for determination of molecular interaction parameters” (GE Healthcare Bio-Sciences AB, priority 2003, dated 2019).

SMILES strings stand for the structures.

Experiment [1] deals with T1, Carbonic anhydrase (Sigma C3640) (Bos taurus, UniProt P00921).
T1 construct: purchased Sigma C3640
Put plainly: SPR (BIACORE S51) sequential injection kinetics, inhibitors binding to immobilized carbonic anhydrase. The protocol:
Kinetic analysis was performed by injecting inhibitors in 10 mM PBS buffer with 0.005% P20 and 5% DMSO at a flow of 30 μl/min.
For orientation: Surface plasmon resonance follows binding to a sensor surface in real time, without labels.

For the next experiment, the target named is Thrombin (Sigma T 1063) (Homo sapiens, UniProt P00734). Conditions: ligand densities approx. 2300 and 600 RU; 10 mM PBS, 0.005% P20, 5% DMSO, 3.4 mM EDTA.

T1 sequence (P00921 whole entry): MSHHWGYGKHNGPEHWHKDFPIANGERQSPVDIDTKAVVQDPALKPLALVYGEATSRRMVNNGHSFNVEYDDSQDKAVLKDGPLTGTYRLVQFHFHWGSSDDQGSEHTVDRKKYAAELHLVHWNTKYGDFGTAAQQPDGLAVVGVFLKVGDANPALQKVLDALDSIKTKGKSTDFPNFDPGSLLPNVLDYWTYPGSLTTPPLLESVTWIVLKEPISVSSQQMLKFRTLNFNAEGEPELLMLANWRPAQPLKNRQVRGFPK

As for `NS(=O)(=O)c1ccccc1` [benzenesulfonamide], the kon in experiment [1] (read-out: ka) was 160000 M⁻¹ s⁻¹. In experiment [1] (two ligand densities, approx. 2000 and 700 RU, 10 mM PBS, 0.005% P20, 5% DMSO), the kd amounted to 0.14 s⁻¹.

For `N=C(N)c1ccc(CNC(=O)[C@@H]2CCN2C(=O)[C@H](NCC(=O)O)C2CCCCC2)cc1` [melagatran], at Thrombin (Sigma T 1063), the ka was 2e+07 M⁻¹ s⁻¹ and the kd was 0.018 s⁻¹.
